Columns and labels:
SIRT2 = biological target: T1, SIRT2 (Homo sapiens, UniProt Q8IXJ6); assay: Cell lysate labeling, SIRT2-overexpressing HEK293; format: biochemical; settings: 10 μM probe
T1 construct: expressed in transfected cells; host or cells: HEK293
T1 sequence (Q8IXJ6 1-389): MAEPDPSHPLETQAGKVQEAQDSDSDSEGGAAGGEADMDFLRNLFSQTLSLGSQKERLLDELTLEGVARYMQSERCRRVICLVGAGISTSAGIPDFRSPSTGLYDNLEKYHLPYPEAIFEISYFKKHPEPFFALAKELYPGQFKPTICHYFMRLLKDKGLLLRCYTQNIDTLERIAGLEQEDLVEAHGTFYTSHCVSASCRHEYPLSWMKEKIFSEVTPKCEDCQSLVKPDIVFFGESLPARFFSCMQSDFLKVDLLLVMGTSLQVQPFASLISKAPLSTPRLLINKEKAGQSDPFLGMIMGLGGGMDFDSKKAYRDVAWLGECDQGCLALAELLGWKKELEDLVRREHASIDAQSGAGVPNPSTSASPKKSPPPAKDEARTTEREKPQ
Method: Remarkably, probe 2C was also able to label individual sirtuin isoforms in cell lysates. HEK293 cells overexpressing human SIRT2 were lysed, and the lysate was subjected to the labeling by 10 μM probe 2C.
Cells were harvested and lysed with RIPA buffer (Thermo Fisher Scientific, Rockford, IL, USA) supplemented with protease inhibitor cocktail (Thermo Fisher Scientific, Rockford, IL, USA). Protein concentration was determined by Bradford assay. A typical labeling experiment contained 4 to 24 μg of protein, 500 μM NAD^+, and 10 μM probe in 100 mM phosphate buffer pH 7.5. The photoaffinity labeling, “click” conjugation to fluorescent dye and visualization were similar to the protocols for labeling recombinant sirtuins as described above.

SIRT1 = biological target: T2, SIRT1 (Homo sapiens, UniProt Q96EB6); assay: Sirtuin inhibition assay (HPLC), SIRT1; format: biochemical; settings: substrate p53K382Ac; 500 μM NAD+, 500 μM peptide, 10 μM sirtuin, pH 7.5, 37 °C
T2 construct: Plasmids of SIRT1 (full length); made in house
T2 sequence (Q96EB6 1-747): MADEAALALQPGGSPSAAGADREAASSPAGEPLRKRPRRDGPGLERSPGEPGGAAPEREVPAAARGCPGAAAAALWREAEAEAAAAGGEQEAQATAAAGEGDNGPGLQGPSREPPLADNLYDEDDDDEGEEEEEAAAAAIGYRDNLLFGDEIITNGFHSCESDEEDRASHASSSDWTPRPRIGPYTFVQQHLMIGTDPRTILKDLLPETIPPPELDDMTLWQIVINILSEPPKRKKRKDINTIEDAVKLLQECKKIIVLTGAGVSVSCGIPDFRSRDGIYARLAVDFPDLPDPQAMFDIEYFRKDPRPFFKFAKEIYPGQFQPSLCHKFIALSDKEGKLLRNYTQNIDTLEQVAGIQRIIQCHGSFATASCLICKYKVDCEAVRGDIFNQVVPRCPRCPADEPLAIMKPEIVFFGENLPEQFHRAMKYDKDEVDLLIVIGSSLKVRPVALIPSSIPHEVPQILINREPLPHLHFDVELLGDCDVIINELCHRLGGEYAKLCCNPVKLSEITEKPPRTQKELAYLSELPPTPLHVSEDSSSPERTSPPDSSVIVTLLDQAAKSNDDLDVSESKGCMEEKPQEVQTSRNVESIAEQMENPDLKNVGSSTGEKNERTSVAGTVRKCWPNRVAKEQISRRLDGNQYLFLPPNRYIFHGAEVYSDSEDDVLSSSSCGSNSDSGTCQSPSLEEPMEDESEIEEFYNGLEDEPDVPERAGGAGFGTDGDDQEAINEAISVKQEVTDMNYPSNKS
Method: Plasmids of SIRT1 (full length), SIRT2 (38-356), SIRT3 (102-399), and SIRT5 (34-302) were generous gifts from Dr. Hening Lin (Cornell University, Ithaca, NY, USA). SIRT6 was a gift from Cheryl Arrowsmith (Addgene plasmid #28271). The proteins were expressed and purified according to previously published protocols. The identity of the protein was confirmed by tryptic digestion followed by LC-MS/MS analysis performed at the Vermont Genetic Network (VGN) Proteomics Facility. Protein concentrations were determined by Bradford assay (Thermo Fisher Scientific, Rockford, IL, USA).
A typical reaction contained 500 μM NAD^+ and 500 μM peptide substrate (H3K9Ac for SIRT2, SIRT3 and SIRT6, p53K382Ac for SIRT1 and SIRT5) of varying concentrations of a small molecule probe in 100 mM phosphate buffer pH 7.5. The reactions were initiated by the addition of 10 μM of sirtuin and were incubated at 37 °C before being quenched by 8 μL of 10% TFA. The incubation time was controlled so that the conversion of substrate was less than 15%. The samples were then injected on an HPLC fitted to a Macherey-Nagel Nucleosil C18 column. NAD^+, NAM and AADPR (acetyl-ADP-ribose) peaks were resolved using a gradient of 0 to 20% methanol in 20 mM ammonium acetate. Chromatograms were analyzed at 260 nm. Reactions were quantified by integrating areas of peaks corresponding to NAD^+ and AADPR. Rates were plotted as a function of small molecule probe concentration, and points were fitted to the following equation:ν(%) = ν0(%) − [ν0(%)(10^x)/(10^x + IC50)](1) where ν(%) represents the turnover rate expressed as percent enzymatic activity remaining, and ν0(%) represents the uninhibited turnover rate expressed as an enzymatic activity of 100%. The variable x represents the log[probe] in nanomolar. IC50 values were derived from this equation.

C#CCCCC1(CCC(=O)N[C@@H](CCCCNC(=S)CCCCCCCCCCCCC)C(=O)N[C@@H](C)C(=O)N[C@@H](C)C(=O)OC)N=N1 [Probe 2C]
amount of cell lysate in which labeling was still observed (SIRT2): 4 µg | labeling of SIRT2 in cell lysate (SIRT2; lysate of HEK293 cells overexpressing human SIRT2): clean and selective labeling of SIRT2

C#CCCCC1(CCC(=O)N[C@@H](CCCCNC(=S)CCC(=O)O)C(=O)N[C@@H](C)C(=O)N[C@@H](C)C(=O)OC)N=N1 [Probe 2B]
IC50 (SIRT1): > 2 mM
